From ChEMBL document CHEMBL1146025, “Design, microwave-assisted synthesis, and spasmolytic activity of 2-(alkyloxyaryl)-1H-benzimidazole derivatives as constrained stilbene bioisosteres” (Bioorg Med Chem Lett, 2006) come the findings set out here.

One may read the Emax as the greatest response seen or fitted, relative to the assay's reference. The IC50 is the point on the concentration scale where inhibition reaches its midpoint. Higher therefore signals a need for much substance.

Each structure is given as a SMILES string.

The species entered for test [1] is Rattus norvegicus. Kind of test: Spasmolytic activity in Wistar rat ileum. It counts as functional.
For test [2], the species on record is Rattus norvegicus. Kind of test: Potency index, spasmolytic activity in Wistar rat ileum relative to gigantol. It counts as functional.

`Oc1ccccc1-c1nc2ccccc2[nH]1`: in the test filed under Rattus norvegicus [1], the Emax is 42.4% and inhibition was half-maximal at 5.15 µM (IC50). In addition, in the test listed under Rattus norvegicus [2], the “Ratio IC50” value worked out at 1.13.
Turning to `COc1cc(OC)c(-c2nc3ccccc3[nH]2)cc1OC`, in the test listed under Rattus norvegicus [1], the Emax turned out to be 90% and the IC50 stood at 4 µM. For the same compound, the “Ratio IC50” value in the test listed under Rattus norvegicus [2] came out at 1.45.
As to `COc1ccccc1-c1nc2ccccc2[nH]1`, in the test filed under Rattus norvegicus [1], the Emax amounted to 52.8% and the midpoint of inhibition, the IC50, lay at 7.7 µM. Also, the “Ratio IC50” value in the test filed under Rattus norvegicus [2] was 0.75.
In the test listed under Rattus norvegicus [1], `COc1ccc(-c2nc3ccccc3[nH]2)cc1OC` had an Emax of 55% and a half-maximal inhibitory concentration (IC50) of 5.6 µM. Moreover, the “Ratio IC50” value in the test listed under Rattus norvegicus [2] came to 1.04.
The like results for `COc1ccc(-c2nc3ccccc3[nH]2)c(OC)c1OC` were, in that order, 65%, 1.8 µM and 3.23.
For the compound `CN(C)c1ccc(-c2nc3ccccc3[nH]2)cc1`, in the test listed under Rattus norvegicus [1], the Emax came to 34.9% and half-maximal inhibition (IC50) required 30 µM. Besides, the “Ratio IC50” value in the test filed under Rattus norvegicus [2] is 0.19.
Turning to `c1ccc(COc2ccccc2-c2nc3ccccc3[nH]2)cc1`, in the test filed under Rattus norvegicus [1], the Emax was found to be 51.4% and half-maximal inhibition (IC50) required 28.2 µM. Besides, the “Ratio IC50” value in the test listed under Rattus norvegicus [2] turned out to be 0.21.
The like results for `CCCOc1ccccc1-c1nc2ccccc2[nH]1` were, in that order, 80%, 1.9 µM and 3.06.
The like results for `CCOc1ccccc1-c1nc2ccccc2n1CC` were, in that order, 60%, 1.72 µM and 3.39.
As for `O=[N+]([O-])c1ccccc1-c1nc2ccccc2[nH]1`, in the test listed under Rattus norvegicus [1], the Emax came out at 11.1% and the half-maximal inhibitory concentration (IC50) turned out to be 78.6 µM. Also, the “Ratio IC50” value in the test listed under Rattus norvegicus [2] was 0.07.
The like results for `CCOc1ccccc1-c1nc2ccccc2[nH]1` were, in that order, 50%, 1.94 µM and 3.
`Oc1ccc(-c2nc3ccccc3[nH]2)cc1`: in the test filed under Rattus norvegicus [1], the Emax is 61.2% and the IC50 was 5.25 µM. For the same compound, in the test listed under Rattus norvegicus [2], the “Ratio IC50” value is recorded as 1.11.
The like results for `c1ccc2[nH]c(-c3ccc4c(c3)OCO4)nc2c1` were, in that order, 59%, 3.4 µM and 1.71.
The like results for `COc1ccc(-c2nc3ccccc3[nH]2)cc1` were, in that order, 54.9%, 10.6 µM and 0.55.
The like results for `c1ccc2[nH]c(-c3ccncc3)nc2c1` were, in that order, 50%, 190 µM and 0.03.
In the test listed under Rattus norvegicus [1], `Clc1ccc(COc2ccccc2-c2nc3ccccc3[nH]2)cc1` gave an Emax of 38.2% and an IC50 of 59 µM. In the test filed under Rattus norvegicus [2], the “Ratio IC50” value was found to be 0.09.
In the test listed under Rattus norvegicus [1], `Cc1ccc(COc2ccccc2-c2nc3ccccc3[nH]2)cc1` showed a maximum response (Emax) of 47.7% and an IC50 of 15 µM. Also, the “Ratio IC50” value in the test filed under Rattus norvegicus [2] is recorded as 0.38.
In the test listed under Rattus norvegicus [1], `COc1cc(-c2nc3ccccc3[nH]2)ccc1O` returned an Emax of 70% and an IC50 of 1.19 µM. In the test listed under Rattus norvegicus [2], the “Ratio IC50” value was determined as 4.9.
The compound `COc1ccc(Cc2nccc3cc(OC)c(OC)cc23)cc1OC` [PAPAVERINE] had a maximal response (Emax) in the test filed under Rattus norvegicus [1] of 96.7%. Further, the “Ratio IC50” value in the test filed under Rattus norvegicus [2] was found to be 3.76.
